From patent US4444691A, “11-Cyano-prostaglandins of the F-series” (American Cyanamid Company, priority 1982, dated 1984)
Read-outs that look alike come from different tables or passages of the source.

Assays:
[1] = tested on: basal gastric acid secretion; assay: Inhibition of total acid output (basal gastric acid secretion) in the acute gastric fistula rat; assay type: in vivo, female Sprague-Dawley rats; details: Rattus norvegicus, intraduodenal
Method: Inhibition of basal gastric acid secretion can be determined by the following procedure.
Female Sprague-Dawley rats weighing 140-160 grams are fasted in individual cages for 18-24 hours. The rats are then lightly anesthetized with ether and their front teeth extracted to avoid destruction of the plastic cannula. A midline incision is then made and the stomach and duodenum exposed. A flanged polyvinyl tube is inserted into the fundic portion of the stomach and secured with a purse string suture line using 4-O Mersilene. The rat is then dosed by injection of the compound into the duodenum (1.0 ml. per 100 gram body weight). After dosing, the abdominal wall and skin are closed using metal wound clips. The rat is replaced in a cage containing a longitudinal slit to allow the polyvinyl tube to hang freely. An 8 ml. plastic collecting tube is attached to the flanged cannula and hangs freely below the cage. The first 30 minute sample is discarded designating this time as zero. The collecting tube is attached again and samples removed at the end of 60 and 120 minutes. These samples are referred to as "A" and "B" in the table. The hourly samples are then transferred to a 15 ml. centrifuge and centrifuged for 5-10 minutes. Total and sediment volume are then recorded with the supernatent volume being used as volume of secretion. A 1 ml. or less aliquot is then removed and placed in a 50 ml. beaker containing 10 ml. of distilled water. This sample is then titrated using 0.01 N NaPH to pH 7.0 using a Beckman zeromatic pH meter. Volume, titratable acidity (mew/L) and total acid output (ueq/hour) are recorded. Percent inhibition is determined by comparison with the appropriate control. Groups of three rats were used for preliminary testing, and groups of six rats were used for dose-response evaluations. All compounds are administered in a vehicle consisting of 0.5% methocel, 0.4% tween 80, and saline at a constant volume of 1 ml./100 gram rat. Samples are dispersed by sonification. Percent inhibition is calculated on basis of concurrent vehicle control.
In Table III which follows is given the effect on total acid output after 60 minutes and 120 minutes of intraduodenal dose, of representative compounds of this invention.

ligated intestine = tested on: ligated intestine; parameters: species or system female Sprague-Dawley rats; details: rat, in vivo
Method: It is therefore unexpected and novel that in general, the compounds of this invention are not diarrheagenic at dose levels at which they are effective gastric acid secretion inhibitors. One measure of diarrheagenic potential is the ileal ligated rat assay, a description of which follows directly.
Female Sprague-Dawley rats (Charles River Laboratories) weighing less than 100 grams are fasted in individual cages for at least 18 hours. They are then anesthetized with ether and a midline incision made. The duodenum is exposed and the test drug or control injected intraduodenally. The ilcocecal junction is then exposed and the terminal ileum is ligated using 3-0 silk thread just proximal to the junction. The incision is then closed using wound clips. Rats are placed back in individual cages without food or water for four hours. After this time the rats were sacrificed, the stomach and small intestine carefully removed, and cleaned of adherent mesentery. The removed portion of gut is then weighed to the nearest 0.1 gram. Compounds inducing diarrhea such as prostaglandins, cholera toxin, etc. produce an increase in weight of the ligated intestine. This increase from control is noted in Table IV, as change in weight in grams after standardizing weights of gut to grams/100 gram rat. An increase in intestinal weight of about 1.0 g. is considered indicative of diarrheagenic potential.
When measured by this assay at effective gastric acid secretion inhibiting doses, as determined by the acute rat fistula assay representative novel compounds of Table IV are non-diarrheagenic.

[2] = tested on: ulcerogenic effects induced by indomethacin (stomach ulcers); assay type: in vivo, rat; details: indomethacin 20 mg/kg s.c.
Method: It is further to be noted that although prostaglandins in general are not effective when administered by oral route, the compounds of this invention are effective orally. The assay to determine the protective effect of these compounds is carried out in the following manner.
Rats were starved for 48 hours (water was given ad libitum). Indomethacin (20 mg./kg. of body weight) was administered by the subcutaneous route and one-half the dose of the test compound was administered by gavage at the same time. After three hours, the second half of the test compound was administered, also by gavage. Five hours after the administration of indomethacin the animals were decapitated and the stomachs removed. The stomachs were washed with distilled water, blotted on gauze, cut along the larger curvature, and the contents rinsed with distilled water. The stomachs were spread out, pinned on a cork and visualized under magnifying glass for ulcers. The criteria for scoring of ulcers was as previously reported. [Abdel-Galil et al. Brit. J. Pharmac. Chemotherapy 33:1-14 (1968)]. […]
1 Petechial hemorrhage of pin point ulcers
3 Many ulcers, a few large
4 Many ulcers, mainly large
Control animals treated with indomethacin but not test compound consistently give scores of about 2.5-3.5. Control animals treated with neither indomethacin not test compound give scores of about 0.5-0.8. Compounds diminishing the control ulcer score by 0.5 unit or more are considered to be active.

gastric acid secretion = assay: Gastric acid secretion inhibition, modified Shay rat procedure; assay type: in vivo, rats (male, CFE strain); details: Rattus norvegicus, intraduodenal, read-out: Percent inhibition of gastric acid secretion
From the text: The novel compounds of the present invention are effective inhibitors of gastric acid secretion and of ulcer development in experimental animals, and thus are potentially valuable as agents for the control of gastric secretion and of gastric erosion and as anti-ulcer agents. Gastric acid secretion inhibitory action is usually measured by the "Shay rat" procedure ^(1,2) with some modifications as follows.
(1) Shay et al., Gastroenterology, 5, 43 (1945).
The rats (male, CFE strain) were starved for 48 hours (water was given ad libitum) to permit evacuation of stomach contents. On the morning of the experiment, under ether anesthesia, the abdominal region was shaved and a midline incision (1-11/2" ) was made with a scapel. With the help of a closed curved hemostat the duodenum was picked up. Upon getting the duodenum into view, fingers were used to pull the stomach through the opening, the stomach was then gently manipulated with fingers to rid stomach of air and residual matter which were pushed through the pylorus. Two-5 inch sutures were drawn under the pyloric-duodenal puncture. A ligature at the juncture, was formed with one of the threads. The second ligature was also formed but not tightened.
The test compound or the vehicle, usually 1 ml./100 g. body weight, were injected into the duodenum as close as possible to the first ligature. After injection the second ligature was tightened below the injection site to minimize leakage. The stomach was placed back through the opening into the abdominal cavity, the area of incision was washed with saline and the incision was closed with autoclips. (Occasionally, instead of an intraduodenal injection, animals were dosed by the oral or subcutaneous route. In the latter case, dosing was done thirty to sixty minutes before the operation.)
The abdominal cavity was exposed by cutting with scissors and the esophagus close to the stomach was clamped off with a hemostat, the stomach was removed by cutting above the hemostat (the esophagus was cut) and between the two sutures. Extraneous tissue was removed, the stomach washed with saline and blotted on gauze. A slit was carefully made in the stomach which was held over a funnel and the contents were collected in a centrifuge tube. The stomach was further cut along the outside edge and turned inside out. Two ml. H2 O were used to wash the stomach contents into the respective centrifuge tube. The combined stomach contents and wash were then centrifuged out for 10 minutes in the International Size 2 Centrifuge (setting at 30). The supernatant was collected, volume measured and recorded, 2 drops of a phenylphthalein indicator (1% in 95% ethanol) were added and the solution was titrated with 0.02 N NaOH (or with 0.04 N NaOH when large volumes of stomach contents were encountered) to pH 8.4 (because of usual coloring of the stomach contents, phenolphthalein was only used to permit visual indication that the end point was near) and the amount of acid present was calculated.
Compounds inducing inhibition of gastric acid secretion of 20% or more were considered active. In a representative operation, and merely by way of illustration, the results obtained with this assay with typical compounds of the present invention are given in Table II below.

[3] = tested on: bronchospasms elicited by 5-hydroxytryptamine; assay: Bronchodilator activity (Konzett assay), 5-hydroxytryptamine bronchospasm; assay type: in vivo, guinea pigs; details: Cavia porcellus; spasmogenic agent 5-hydroxytryptamine; three logarithmic cumulative intravenous doses
Method: (§1) Bronchodilator activity was determined in guinea pigs against bronchospasms elicited by intravenous injections of 5-hydroxytryptamine, histamine or acetylchlorine by the Konzett procedure. (See J. Lulling, P. Licvens, F. El Sayed and J. Prignot, Arzneinittel-Forschung, 18, 995 (1968).]
(§2) In the Table which follows bronchodilator activity for representative compounds of this invention against one or more of the three spasmogenic agents is expressed as an ED50 determined from the results obtained with three logarithmic cumulative intravenous doses.

[4] = tested on: bronchospasms elicited by histamine; assay: Bronchodilator activity (Konzett assay), histamine bronchospasm; assay type: in vivo, guinea pigs; details: Cavia porcellus, iv, spasmogenic agent histamine; three logarithmic cumulative intravenous doses
Method: as §1, §2

[5] = tested on: bronchospasms elicited by acetylcholine; assay: Bronchodilator activity (Konzett assay), acetylcholine bronchospasm; assay type: in vivo, guinea pigs; details: Cavia porcellus; spasmogenic agent acetylcholine; three logarithmic cumulative intravenous doses
Method: as §1, §2

gastrointestinal effects = details: Physician's Desk Reference 1972, p. 964; cited from earlier work
[6] = 1 h, 60 min, read-out: % Inhibition of total acid output, after 60 minutes (A)
[7] = 2 h, 120 min, read-out: % Inhibition of total acid output, after 120 minutes (B)
[8] = total oral dose 12.5 mg/kg, score 0-4, controls 2.5-3.0

With `CCCCC[C@H](O)/C=C/[C@H]1C(SC(C)=O)CC(=O)[C@@H]1C/C=C\CCCC(=O)O` (stereo partly drawn) [l-11-acetylthio-11-deoxyprostaglandin-E2, 11-deoxy-11α/β-acetylthioprostaglandin E2] the inhibition in vivo at 10 mg/kg [1, 6] was 66%, the inhibition in vivo at 10 mg/kg [1, 7] was 68% and the “Increase in weight of intestine” value (ligated intestine; 10 mg/kg) was -0.02 g. For the same compound, the “Increase in weight of intestine” value (ligated intestine; 20 mg/kg) was -0.1 g.
With `CCCCC[C@H](O)/C=C/[C@H]1[C@H](SCC)CC(=O)[C@@H]1C/C=C\CCCC(=O)O` [l-11α-ethylthio-11-deoxyprostaglandin-E2, 11-deoxy-11α-ethylthioprostaglandin E2] the “Increase in weight of intestine” value (ligated intestine; 10 mg/kg) was -0.2 g.
For `CCCCC[C@@H](/C=C/[C@H]1[C@H](CO)C[C@@H](O)[C@@H]1C/C=C\CCCC(=O)OC)OC(C)=O` [l-11α-hydroxymethyl-15-O--acetyl-11-deoxyprostaglandin-F2 β methyl ester], the inhibition in vivo at 5 mg/kg [1, 6] was 47%, the inhibition in vivo at 5 mg/kg [1, 7] was 33% and the “Increase in weight of intestine” value (ligated intestine; 10 mg/kg) was “+0.15 g”.
With `CCCCC[C@H](O)/C=C/[C@H]1C(C#N)CC(=O)[C@@H]1C/C=C\CCCC(=O)O` (stereo partly drawn) [l-11α/β-cyano-11-deoxyprostaglandin-E2, 11α/β-cyano-11-deoxy-prostaglandin E2] the “Ulcer score, treated animals” value [2, 8] was 1.2, the inhibition in vivo at 25 mg/kg (gastric acid secretion; 25 mg/kg) was 31% and the inhibition in vivo at 50 mg/kg (gastric acid secretion) was 79%. For the same compound, the ED50 [3] was 0.036 mg/kg, the ED50 [4] was 0.0054 mg/kg and the ED50 [5] was 0.091 mg/kg.
In the case of `C=C[C@@H]1C[C@H](O)[C@H](C/C=C\CCCC(=O)O)[C@H]1/C=C/[C@@H](O)CCCCC` [l-11α-vinyl-11-deoxyprostaglandin-F2 α, 11-deoxy-11α-vinylprostaglandin F2α], the inhibition in vivo at 2.5 mg/kg [1, 6] is reported as 15%, the inhibition in vivo at 5 mg/kg [1, 6] is reported as 53% and the inhibition in vivo at 2.5 mg/kg [1, 7] is reported as 37%. For the same compound, the inhibition in vivo at 5 mg/kg [1, 7] was 67% and the “Increase in weight of intestine” value (ligated intestine; 10 mg/kg) was -0.36 g.
With `CCCCC[C@H](O)/C=C/[C@H]1[C@H](C)CC(=O)[C@@H]1C/C=C\CCCC(=O)O` [l-11α-methyl-11-deoxyprostaglandin-E2, 11-deoxy-11α-methyl-prostaglandin E2] the “Ulcer score, treated animals” value ([2]; total oral dose 6.25 mg/kg, score 0 (normal) to 4, controls 3.0) was 2.5, the “Ulcer score, treated animals” value [2, 8] was 2.0 and the “Ulcer score, treated animals” value ([2]; total oral dose 25 mg/kg, score 0-4, controls 2.7-3.9) was 1.7. It also gave an inhibition in vivo at 50 mg/kg (gastric acid secretion) of 63%, an ED50 [3] of 0.0022 mg/kg and an ED50 [4] of 0.05 mg/kg. The ED50 [5] was 1.19 mg/kg.
With `CCCCC[C@H](O)/C=C/[C@H]1[C@H](CO)C[C@@H](O)[C@@H]1C/C=C\CCCC(=O)O` [l-11-dexoy-11α-hydroxymethylprostaglandin-F2 β] the inhibition in vivo at 5 mg/kg [1, 6] was 49%, the inhibition in vivo at 5 mg/kg [1, 7] was 49% and the “Increase in weight of intestine” value (ligated intestine; 10 mg/kg) was “+0.6 g”.
For `COc1ccc2c(c1)c(CC(=O)O)c(C)n2C(=O)c1ccc(Cl)cc1` [indomethacin, reference compound], the “Ulcer score, control animals treated with indomethacin but not test compound” value ([2]; 5 h) is given as 2.5-3.5 and the Gastrointestinal reactions (gastrointestinal effects) is given as “occurrence and, at times, severity of gastrointestinal reactions”.
